Results reported in patent publication US20220153741A1, “HETEROCYCLIC COMPOUNDS AS INHIBITORS OF KRAS G12C” (Guangdong Newopp Biopharmaceuticals Co., Ltd., priority 2019, published 2022).

Legend:
Format in all cases: cell-based
[1] = tested on: pERK1/2 in NCI-H358 cells; test: Phospho-ERK (pERK) assay in NCI-H358 cells; details: Homo sapiens, NCI-H358, 3 h, 3 hours compound treatment, pERK1/2 antibody fluorescence
Procedure: Phospho-ERK (pERK) assay: NCI-H358 cells were seeded in 96-well plates (Greiner) in RPMI-1640 with 10% FBS 16 hours prior to compound treatment. Serial dilution of compounds was made and added to wells, and then incubated at 37° C. for 3 hours. After the treatment, cells were fixed with 3.7% formaldehyde (VWR) for 20 min at RT, followed by being permeabilized with ice-cold methanol at −20° C. for 20 min. The methanol was then dumped and replaced with Intercept® (PBS) Blocking Buffer (LiCOR) supplemented with 0.05% Tween-20 and incubated at RT for 1 hour with gentle rocking. The blocking buffer was then replaced with the blocking buffer containing pERK1/2 antibody (Cell Signaling) and incubated at 4° C. overnight with gentle rocking. The plate was washed 5 times with 1×PBS+0.1% Tween-20. The blocking buffer containing LiCOR IRDye 680RD secondary antibody (LiCOR,) was then added and incubated for 1 hour at RT with gentle rocking. After washing 5 times with 1×PBS+0.1% Tween-20, the plate was read using CLARIOstar plate reader (BMG LABTECH GmbH). IC50 values were determined as the concentration of 50% inhibition of the fluorescence signal compared to DMSO treated cells (A: IC50<0.1 μM; B: IC50 between 0.1 μM and 1 μM; C: IC50 between 1 μM and 10 μM; D: >10 μM; ND: not determined).

[2] = tested on: LS513 (KRAS G12D) cancer cell line; test: 3D proliferation assay, LS513 (CellTiter-Glo); details: 96-well spheroid plate, 4 days
Procedure: (§1) 3D proliferation assay: NCI-H358 (H358, KRAS G12C) and LS513 (KRAS G12D) cancer cell lines were obtained from ATCC (American Type Culture Collection, VA). Cells were plated in 96-well spheroid plate (CORNING INC, NY)) in RPMI-1640 with 10% FBS. Compounds (11-point dilutions) and DMSO were added to the wells and incubated with cells for 4 days at 37° C. Cell viability was then determined by CellTiter-Glo (Promega, WI). IC50 values of compounds were determined as the concentration of 50% inhibition of cell viability compared to DMSO treated cells (A: IC50<0.1 μM; B: IC50 between 0.1 μM and 1 μM; C: IC50 between 1 μM and 10 μM; D: >10 μM; ND: not determined).

[3] = tested on: NCI-H358 (H358, KRAS G12C) cancer cell line; test: 3D proliferation assay, NCI-H358 (CellTiter-Glo); details: 96-well spheroid plate, 4 days
Procedure: as §1

| SMILES | IC50 [1] | IC50 [2] | IC50 [3] | IC50 ([2]; Homo sapiens, LS-513, 96 h) | IC50 ([3]; Homo sapiens, NCI-H358, 96 h) |
| --- | --- | --- | --- | --- | --- |
| C=CC(=O)N1CCN(c2nc(=O)n3c4nc(c(F)cc24)-c2c(F)cccc2NCCCc2ccnc(C(C)C)c2-3)[C@@H](C)C1 (single isomer, unassigned) [Example 2A] | < 100 nM | > 10000 nM | < 100 nM | – | – |
| C=C(F)C(=O)N1C[C@H](C)N(c2nc(=O)n3c4nc(c(F)cc24)-c2c(F)cccc2NCCCc2ccnc(C(C)C)c2-3)C[C@H]1C (single isomer, unassigned) [Example 6A] | – | – | > 10000 nM | – | – |
| C=C(F)C(=O)N1C[C@H](C)N(c2nc(=O)n3c4nc(c(F)cc24)-c2c(F)cccc2NCCCc2ccnc(C(C)C)c2-3)C[C@H]1C (single isomer, unassigned) [Example 6B] | – | – | 100 to 1000 nM | > 10000 nM | – |
| C=CC(=O)N1C[C@H](C)N(c2nc(=O)n3c4nc(c(F)cc24)-c2c(F)cccc2NCCCNc2cccc(C(C)C)c2-3)C[C@H]1C (single isomer, unassigned) [Example 23A] | – | > 10000 nM | – | – | < 100 nM |
| C=CC(=O)N1C[C@H](C)N(c2nc(=O)n3c4nc(c(F)cc24)-c2c(F)cccc2NCCCNc2cccc(C(C)C)c2-3)C[C@H]1C (single isomer, unassigned) [Example 23B] | – | 1000 to 10000 nM | 100 to 1000 nM | – | – |
| C=CC(=O)N1CCN(c2nc(=O)n3c4nc(c(F)cc24)-c2c(F)cccc2NCCCc2ccnc(C(C)C)c2-3)[C@@H](C)C1 [Example 2, (S)-2^4-(4-acryloyl-2-methylpiperazin-1-yl)-2^6,3^6-difluoro-1^2-isopropyl-2^1,2^2-dihydro-4-aza-2(1,7)-pyrido[2,3-d]pyrimidina-1(3,4)-pyridina-3(1,2)-benzenacycloheptaphan-2^2-one] | – | – | – | > 10000 nM | < 100 nM |
| C=CC(=O)N1CCN(c2nc(=O)n3c4nc(c(F)cc24)-c2c(F)cccc2NC(=O)CCc2ccnc(C(C)C)c2-3)C[C@@H]1CC#N [Example 3, (S)-2-(1-acryloyl-4-(2^6,3^6-difluoro-1^2-isopropyl-2^2,5-dioxo-2^1,2^2-dihydro-4-aza-2(1,7)-pyrido[2,3-d]pyrimidina-1(3,4)-pyridina-3(1,2)-benzenacycloheptaphane-2^4-yl)piperazin-2-yl)acetonitrile] | – | – | – | – | 1000 to 10000 nM |
| C=CC(=O)N1CCN(c2nc(=O)n3c4nc(c(F)cc24)-c2c(F)cccc2NC(=O)NCCc2ccnc(C(C)C)c2-3)[C@@H](C)C1 [Example 5, (S)-2^4-(4-acryloyl-2-methylpiperazin-1-yl)-2^6,3^6-difluoro-1^2-isopropyl-2^1,2^2-dihydro-4,6-diaza-2(1,7)-pyrido[2,3-d]pyrimidina-1(3,4)-pyridina-3(1,2)-benzenacyclooctaphane-2^2,5-dione] | – | – | – | – | 100 to 1000 nM |
| C=C(F)C(=O)N1CCN(c2nc(=O)n3c4nc(c(F)cc24)-c2c(F)cccc2NCCCc2ccnc(C(C)C)c2-3)[C@@H](C)C1 [Example 11, (S)-2^6,3^6-difluoro-2^4-(4-(2-fluoroacryloyl)-2-methylpiperazin-1-yl)-1^2-isopropyl-2^1,2^2-dihydro-4-aza-2(1,7)-pyrido[2,3-d]pyrimidina-1(3,4)-pyridina-3(1,2)-benzenacycloheptaphan-2^2-one] | – | – | – | > 10000 nM | 100 to 1000 nM |
| C=CC(=O)N1CCN(c2nc(=O)n3c4nc(c(F)cc24)-c2c(F)cccc2N(C(C)=O)CCCc2ccnc(C(C)C)c2-3)[C@@H](C)C1 [Example 12, (S)-4-acetyl-2^4-(4-acryloyl-2-methylpiperazin-1-yl)-2^6,3^6-difluoro-1^2-isopropyl-2^1,2^2-dihydro-4-aza-2(1,7)-pyrido[2,3-d]pyrimidina-1(3,4)-pyridina-3(1,2)-benzenacycloheptaphan-2^2-one] | – | – | – | > 10000 nM | 100 to 1000 nM |
| C=CC(=O)N1CCN(c2nc(=O)n3c4nc(c(F)cc24)-c2c(F)cccc2N(C(=O)N(C)C)CCCc2ccnc(C(C)C)c2-3)[C@@H](C)C1 [Example 13, (S)-2^4-(4-acryloyl-2-methylpiperazin-1-yl)-2^6,3^6-difluoro-1^2-isopropyl-N,N-dimethyl-2^2-oxo-2^1,2^2-dihydro-4-aza-2(1,7)-pyrido[2,3-d]pyrimidina-1(3,4)-pyridina-3(1,2)-benzenacycloheptaphane-4-carboxamide] | – | – | – | – | 100 to 1000 nM |
| C=CC(=O)N1CCN(c2nc(=O)n3c4nc(c(F)cc24)-c2c(F)cccc2N(C(=O)c2cccnc2)CCCc2ccnc(C(C)C)c2-3)[C@@H](C)C1 [Example 14, (S)-2^4-(4-acryloyl-2-methylpiperazin-1-yl)-2^6,3^6-difluoro-1^2-isopropyl-4-nicotinoyl-2^1,2^2-dihydro-4-aza-2(1,7)-pyrido[2,3-d]pyrimidina-1(3,4)-pyridina-3(1,2)-benzenacycloheptaphan-2^2-one] | – | – | – | – | 1000 to 10000 nM |
| C=CC(=O)N1CCN(c2nc(=O)n3c4nc(c(F)cc24)-c2c(F)cccc2N(C)C(=O)NCCc2ccnc(C(C)C)c2-3)[C@@H](C)C1 [Example 16, (S)-2^4-(4-acryloyl-2-methylpiperazin-1-yl)-2^6,3^6-difluoro-1^2-isopropyl-4-methyl-2^1,2^2-dihydro-4,6-diaza-2(1,7)-pyrido[2,3-d]pyrimidina-1(3,4)-pyridina-3(1,2)-benzenacyclooctaphane-2^2,5-dione] | – | – | – | – | 1000 to 10000 nM |
| C=CC(=O)N1CCN(c2nc(=O)n3c4nc(c(F)cc24)-c2c(F)cccc2NC(=O)CCc2cccc(C(C)C)c2-3)[C@@H](C)C1 [Example 18, (S)-2^4-(4-acryloyl-2-methylpiperazin-1-yl)-2^6,3^6-difluoro-1^6-isopropyl-2^1,2^2-dihydro-4-aza-2(1,7)-pyrido[2,3-d]pyrimidina-1,3(1,2)-dibenzenacycloheptaphane-2^2,5-dione] | – | – | – | > 10000 nM | 100 to 1000 nM |
| C=CC(=O)N1CCN(c2nc(=O)n3c4nc(c(F)cc24)-c2c(F)cccc2NC(=O)CCNc2cccc(C(C)C)c2-3)[C@@H](C)C1 [Example 21, (S)-2^4-(4-acryloyl-2-methylpiperazin-1-yl)-2^6,3^6-difluoro-1^6-isopropyl-2^1,2^2-dihydro-4,8-diaza-2(1,7)-pyrido[2,3-d]pyrimidina-1,3(1,2)-dibenzenacyclooctaphane-2^2,5-dione] | – | – | – | > 10000 nM | < 100 nM |
| C=CC(=O)N1C[C@H](C)N(c2nc(=O)n3c4nc(c(F)cc24)-c2c(F)cccc2NC(=O)CCNc2cccc(C(C)C)c2-3)C[C@H]1C [Example 24A, 2^4-((2S,5R)-4-acryloyl-2,5-dimethylpiperazin-1-yl)-2^6,3^6-difluoro-1^6-isopropyl-2^1,2^2-dihydro-4,8-diaza-2(1,7)-pyrido[2,3-d]pyrimidina-1,3(1,2)-dibenzenacyclooctaphane-2^2,5-dione] | – | – | – | > 10000 nM | < 100 nM |
| C=CC(=O)N1CCN(c2nc(=O)n3c4nc(c(F)cc24)-c2c(F)cccc2NC(=O)CNc2cccc(C(C)C)c2-3)[C@@H](C)C1 [Example 25, (S)-2^4-(4-acryloyl-2-methylpiperazin-1-yl)-2^6,3^6-difluoro-1^6-isopropyl-2^1,2^2-dihydro-4,7-diaza-2(1,7)-pyrido[2,3-d]pyrimidina-1,3(1,2)-dibenzenacycloheptaphane-2^2,5-dione] | – | – | – | > 10000 nM | < 100 nM |
| C=CC(=O)N1C[C@H](C)N(c2nc(=O)n3c4nc(c(F)cc24)-c2c(F)cccc2NC(=O)CNc2cccc(C(C)C)c2-3)C[C@H]1C [Example 26, 2^4-((2S,5R)-4-acryloyl-2,5-dimethylpiperazin-1-yl)-2^6,3^6-difluoro-1^6-isopropyl-2^1,2^2-dihydro-4,7-diaza-2(1,7)-pyrido[2,3-d]pyrimidina-1,3(1,2)-dibenzenacycloheptaphane-2^2,5-dione] | – | – | – | > 10000 nM | < 100 nM |
| C=CC(=O)N1CCN(c2nc(=O)n3c4nc(c(F)cc24)-c2c(F)cccc2NC(=O)CCN(C)c2cccc(C(C)C)c2-3)C(C)C1 [Example 29, (S)-2^4-(4-acryloyl-2-methylpiperazin-1-yl)-2^6,3^6-difluoro-1^6-isopropyl-8-methyl-2^1,2^2-dihydro-4,8-diaza-2(1,7)-pyrido[2,3-d]pyrimidina-1,3(1,2)-dibenzenacyclooctaphane-2^2,5-dione] | – | > 10000 nM | < 100 nM | – | – |
| C=CC(=O)N1C[C@H](C)N(c2nc(=O)n3c4nc(c(F)cc24)-c2c(F)cccc2NC(=O)CCN(C)c2cccc(C(C)C)c2-3)C[C@H]1C [Example 30, 2^4-((2S,5R)-4-acryloyl-2,5-dimethylpiperazin-1-yl)-2^6,3^6-difluoro-1^6-isopropyl-8-methyl-2^1,2^2-dihydro-4,8-diaza-2(1,7)-pyrido[2,3-d]pyrimidina-1,3(1,2)-dibenzenacyclooctaphane-2^2,5-dione] | – | – | – | > 10000 nM | < 100 nM |
